The values below come from EP0590919A1, “Therapeutic agents for parkinson's disease” (KYOWA HAKKO KOGYO CO., LTD., priority 1992, dated 1994).

Each structure is given as a SMILES string. pKi: −log10 of the molar value. Like-named read-outs stand apart in the source and are kept apart here.

Series [1] concerns Haloperidol-Induced Catalepsy. Kind of series: Effect on haloperidol-induced catalepsy. It counts as in vivo, mice. The note with it: for ED50: Mus musculus, 1 h, read-out: ED₅₀; for Number of the Animals Showing Remission: of five mice, catalepsy score not more than 4 points; for Number of the Animals Showing Remission / Remission Rate (%) / Total Score: 10 mg/kg orally; for Remission Rate (%): rate of decrease in total score based on control group; for Total Score: total catalepsy score of five mice (25 points at the full), haloperidol 1.0 mg/kg i.p. In outline: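 Mice got haloperidol 1.0 mg/kg i.p. in 0.3% CMC, then test compounds orally 1 hr later in 0.3% CMC or Tween 80/water. Catalepsy was scored on a 4.5 cm-high bar 1 hr after dosing; remission meant score ≤4 points. ED₅₀ came from Probit analysis.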

Series [2] has as its system Rats with a 6-Hydroxydopamine-Induced Unilateral Lesion of the Nigrostriatal Dopamine Pathway. Kind of series: Augmentation of apomorphine-induced contralateral rotation in 6-hydroxydopamine-lesioned rats. The conditions noted are these: test compound 1 mg/kg orally 30 minutes before apomorphine 0.1 mg/kg s.c.; 150 minutes. It is filed as in vivo. The procedure: Then, the animals were anesthetized with sodium pentobarbital (30 mg/kg, i.p., Dainippon Pharm. Co., Ltd.) and the nigrostriatal pathway was lesioned by injection of 6-hydroxydopamine hydrobromide (8 µg, Sigma Co.) into the left medial forebrain bundle. 6-Hydroxydopamine hydrobromide was dissolved in physiological saline containing 0.05% L-ascorbic acid (Wako Pure Chem. Industries, Ltd.) to make 2 µl of solution and injected over 3 minutes.
More than 10 days after surgery, each rat was placed in a plastic bowl (30 cm in diameter). […] The number of rotations was counted with an automated rotometer, in which each 180° turn was counted as a rotation.
Test compounds were suspended in 0.3% sodium carboxymethylcellulose and administered orally at a dose of 1 mg/kg 30 minutes before the injection of apomorphine (0.1 mg/kg, s.c.). The counts of rotations were summed up every 5 minutes for 150 minutes after apomorphine administration. The total rotation counts induced by apomorphine (0.1 mg/kg, s.c.) with and without a test compound were statistically compared, using the same animals. Rats were allowed to rest more than 5 days between each experiment. Statistical comparison of the values was carried out by Sign-Wilcoxon test.

For series [3], the system named is MPTP-treated C57BL/6 mice. Put plainly: Effect on locomotor activity in Parkinson's disease model in mice (MPTP). It is filed as in vivo. The note with it: MPTP (+), 30 minutes starting 30 minutes after administration. Here is the method:
The experiment was performed by using several groups of 7-weeks-old male C57BL/6 mice (weighing 20 to 24 g, Japan SLC), each group consisting of 8 mice. MPTP (Aldrich Chemical Co., Inc.) dissolved in a physiological saline solution (Otsuka Pharmaceutical Co., Ltd.) was intraperitoneally administered to each mouse once a day for five consecutive days at a dose of 30 mg/kg. A test compound was suspended in injectable distilled water (Otsuka Phamaceutical Co., Ltd.) containing Tween 80 [polyoxyethylene (20) sorbitan monooleate]. L-DOPA (Kyowa Hakko Kogyo Co., Ltd.) was suspended in 0.3% CMC (sodium carboxylmethylcellulose) and bromocriptine was suspended in injectable distilled water. Thirty minutes after the final MPTP administration, the test compound suspensions and the control suspension [injectable distilled water (Otsuka Pharmaceutical Co., Ltd.) containing Tween 80] containing no test compound were orally administered to separate groups of the mice (0.1 ml per 10 g of body weight). […] Statistical comparison of the values was carried out by Student's t-test.

The next series concerns dd-strain male mice. Put plainly: Acute toxicity test (minimum lethal dose, oral). It counts as in vivo. The note with it: oral administration, three mice per group, mortality seven days after administration. The procedure:
Test compounds were orally administered to groups of dd-strain male mice weighing 20 ± 1 g, each group consisting of three mice. Seven days after the administration, minimum lethal dose (MLD) of each compound was determined by observing the mortality.

A further series deals with T1, A₁ receptor (Cavia porcellus, UniProt P47745).
T1 construct: from tissue; host or cells: guinea pig cerebrum membrane preparation
T1 sequence (P47745 1-326): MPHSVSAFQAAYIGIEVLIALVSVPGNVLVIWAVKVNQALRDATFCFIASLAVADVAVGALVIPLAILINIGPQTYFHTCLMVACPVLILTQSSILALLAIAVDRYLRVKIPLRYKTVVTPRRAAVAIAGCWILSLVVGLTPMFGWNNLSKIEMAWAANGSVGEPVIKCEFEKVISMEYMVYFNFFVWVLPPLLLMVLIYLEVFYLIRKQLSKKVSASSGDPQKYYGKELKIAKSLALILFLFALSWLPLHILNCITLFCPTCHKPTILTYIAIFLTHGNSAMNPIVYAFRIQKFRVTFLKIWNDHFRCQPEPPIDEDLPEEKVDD
Put plainly: Adenosine A₁ receptor binding test (³H-CHA binding). Also noted: species or system guinea pig. The conditions noted are these: guinea pig cerebrum; for inhibition at 100 µM: 10⁻⁴M; for inhibition at 10 µM: 10⁻⁵M. Here is the method:
Cerebrum of a guinea pig was suspended in ice-cooled 50 mM Tris hydroxymethyl aminomethane hydrochloride (Tris HCl) buffer (pH 7.7) by using Polytron homogenizer (manufactured by […] Co.). […] The suspension was centrifuged under the same conditions, and the final precipitate was suspended once again in 50 mM Tris HCl buffer to give a tissue concentration of 100 mg (wet weight)/ml. The tissue suspension was incubated at 37°C for 30 minutes in the presence of 0.02 unit/mg tissue of adenosine deaminase (manufactured by Sigma Co.). The tissue suspension was then centrifuged (50,000 x g, 10 minutes), and 50 mM Tris HCl buffer was added to the precipitate to adjust the concentration of tissue to 10 mg (wet weight)/ml. […] The mixture solution was allowed to stand at 25°C for 90 minutes and then rapidly filtered by suction through a glass fiber filter (GF/C manufactured by Whatman Co.). […] The radioactivity on the filter was determined with a liquid scintillation counter (manufactured by Packard Instrument Co.). […] The inhibition constant (Ki value) shown in the table was calculated by the Cheng-Prusoff's equation.

Series [4] addresses T2, A₂ receptor (Rattus norvegicus, UniProt P30543).
T2 construct: from tissue; host or cells: rat corpus striatum membrane preparation
Put plainly: Adenosine A₂ receptor binding test (³H-NECA binding). The conditions noted are these: for inhibition at 0.1 µM / inhibition at 1 µM / inhibition at 10 µM / inhibition at 100 µM: read-out: Inhibition (%) A₂ Receptor; for pKi: ³H-NECA binding.

Series [5] addresses T2, A₂ receptor. Kind of series: Adenosine A₂ receptor binding test (³H-CGS 21680 binding). The conditions noted are these: [^3H]CGS 21680 was used, rat corpus striatum, read-out: A2 Receptor Inhibition (%). In outline: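 Rat corpus striatum membranes (5 mg wet weight/ml) in 50 mM Tris HCl with 10 mM MgCl2 and adenosine deaminase, incubated with 4.0 nM ³H-CGS 21680. Nonspecific binding defined with 100 µM CPA; percent inhibition of specific binding calculated at single test concentrations.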

The mark [6] stands for this setting: ten mice at each dose, effective = catalepsy score 3 or less, Probit analysis, oral.

T2 sequence (P30543 whole entry): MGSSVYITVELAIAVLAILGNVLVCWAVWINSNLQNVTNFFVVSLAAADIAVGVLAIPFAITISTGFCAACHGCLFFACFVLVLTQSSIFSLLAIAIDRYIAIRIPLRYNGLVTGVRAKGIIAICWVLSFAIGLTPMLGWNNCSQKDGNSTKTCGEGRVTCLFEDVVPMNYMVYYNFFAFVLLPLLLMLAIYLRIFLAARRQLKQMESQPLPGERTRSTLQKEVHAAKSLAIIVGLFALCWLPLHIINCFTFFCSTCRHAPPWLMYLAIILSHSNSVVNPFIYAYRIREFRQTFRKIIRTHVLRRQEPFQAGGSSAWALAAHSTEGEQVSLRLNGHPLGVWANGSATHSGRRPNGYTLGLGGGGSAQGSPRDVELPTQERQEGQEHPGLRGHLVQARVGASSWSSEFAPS

As to `CCn1c(=O)c2c(nc(/C=C/c3ccc(OC)c(OC)c3)n2C)n(CC)c1=O` [Compound 2, (E)-8-(3,4-Dimethoxystyryl)-1,3-diethyl-7-methylxanthine], the ED50 in series [1] (setting [6]) stood at 0.03 mg/kg. Moreover, in series [1], the “Number of the Animals Showing Remission” value was found to be 5, the “Remission Rate (%)” value stood at 80% and the “Total Score” value stood at 2. Also, the “total amount of rotations (average count ± S.E.M.) test compound + apomorphine” value (from here on “total amount of rotations”) in series [2] was 1584 ± 196 count. The “Amount of Active Movements (average count ± S.E.M)” value (“Amount of Active Movements” below) in series [3] (test compound 0.63 mg/kg orally) came to 610 ±147.9 count. The “Amount of Active Movements” value in series [3] (test compound 2.5 mg/kg orally) came out at 1265 ±316.9 count. The compound further gave an MLD in the series on dd-strain male mice above 300 mg/kg.

For `CCn1c(=O)c2c(nc(/C=C/c3ccc(OC)c(OC)c3OC)n2C)n(CC)c1=O` [Compound 8, (E)-1,3-Diethyl-7-methyl-8-(2,3,4-trimethoxystyryl)xanthine], the ED50 in series [1] (setting [6]) is 0.23 mg/kg. In addition, in series [1], the “Number of the Animals Showing Remission” value was 5, the “Remission Rate (%)” value amounted to 92% and the “Total Score” value is reported as 2. On A₁ receptor, this compound came in with an inhibition at 100 µM of 94% and an inhibition at 10 µM of 89%. The “total amount of rotations” value in series [2] was determined as 1406 ± 155 count. Further, the “Amount of Active Movements” value in series [3] (test compound 2.5 mg/kg orally) came out at 800 ±156.8 count. Also, on A₂ receptor [4], the inhibition at 0.1 µM came out at 80%, the inhibition at 1 µM was determined as 99%, the inhibition at 10 µM was 95% and the inhibition at 100 µM came out at 74%. The pKi at A₂ receptor [4] was 8.41. For the same compound, the MLD in the series on dd-strain male mice is recorded as above 300 mg/kg.

With `CCn1c(=O)c2c(nc(/C=C/c3ccc(OC)c(C)c3C)n2C)n(CC)c1=O` [Compound 10, (E)-1,3-Diethyl-8-(4-methoxy-2,3-dimethylstyryl)-7-methylxanthine], the ED50 in series [1] (setting [6]) is 0.24 mg/kg. In series [1], the “Number of the Animals Showing Remission” value was found to be 5 and the “Remission Rate (%)” value is reported as 68%. On A₁ receptor, this compound gave an inhibition at 100 µM of 56% and an inhibition at 10 µM of 57%. Also, the “total amount of rotations” value in series [2] stood at 1637 ± 127 count. The “Amount of Active Movements” value in series [3] (test compound 10 mg/kg orally) is listed as 754 ±174.2 count. Moreover, on A₂ receptor [4], the inhibition at 0.1 µM stood at 91%, the inhibition at 1 µM is 94%, the inhibition at 10 µM came to 90% and the inhibition at 100 µM is 93%. Further, the pKi on A₂ receptor [4] was 8.70. Also, the MLD with dd-strain male mice is reported as above 300 mg/kg.

`CCn1c(=O)c2c(nc(/C=C/c3ccc(OC)c(C)c3OC)n2C)n(CC)c1=O` [Compound 14, (E)-8-(2,4-Dimethoxy-3-methylstyryl)-1,3-diethyl-7-methylxanthine]: the ED50 in series [1] (po) was determined as 0.6 mg/kg. Besides, in series [1], the “Number of the Animals Showing Remission” value amounted to 5, the “Remission Rate (%)” value was 92% and the “Total Score” value was 1. Also, the “total amount of rotations” value in series [2] is recorded as 1378 ± 216 count. Besides, the “Amount of Active Movements” value in series [3] (test compound 10 mg/kg orally) was found to be 817 ±163.1 count. At A₂ receptor [4], the negative logarithm of the Ki (pKi) is 8.80. Further, the MLD in the series on dd-strain male mice is listed as above 300 mg/kg.

Take `CCn1c(=O)c2c(nc(/C=C/c3cc(OC)c4c(c3)OCO4)n2C)n(CC)c1=O` [Compound 107, (E)-1,3-Diethyl-8-(3-methoxy-4,5-methylenedioxystyryl)-7-methylxanthine]: on A₂ receptor [5] (10^-6M), the inhibition at 1 µM was 84%. At A₂ receptor [5] (10^-7M), the inhibition at 0.1 µM stood at 93%. Further, in series [1] (setting [6]), the ED50 turned out to be 0.01 mg/kg. Besides, in series [1], the “Number of the Animals Showing Remission” value is recorded as 5, the “Remission Rate (%)” value is 92% and the “Total Score” value was determined as 3. Also, in series [2], the “total amount of rotations” value is listed as 1490 ± 146 count. In series [3] (test compound 2.5 mg/kg orally), the “Amount of Active Movements” value worked out at 604 ±192.6 count. Also, in the series on dd-strain male mice, the MLD is above 100 mg/kg.

By inhibition is commonly meant the percentage by which the read-out fell short of the control. What is called pKi is −log10 of the Ki, conventionally taken in molar units. Lower therefore signals a large Ki.
